Entries after “also recorded” stand apart in the source; their conditions may differ.
Legend:
EMT6 tumors = experiment: EMT6 (breast) syngeneic tumor model (Example B6); type: in vivo, Balb/c mice
Method: (§1) The therapeutic impact of Compound 39 of the examples in combination with anti PD-1 was studied for several […] mouse models, as shown in Table B-3. For each model, four dosing regimens were studied, using a group size of 10 mice per dosing regimen per model, and a total of 40 mice per model.
(§2) Mice were shaved and tumor cells as indicated in Table B-3 were subcutaneously implanted in a 100 μl cell suspension that was subcutaneously injected into the front/rear flank of each mouse (as indicated in Table B-3).
(§3) There was no dosing holiday. Dietary supplements were uniform for all animals in the same group.
Animals were monitored weekly for changes in tumor volume. Tumors were measured at least once a week using calipers. Tumor volume was calculated using the equation: (longest diameter*shortest diameter^2)/2.
The study was terminated four weeks after the first dose or when the tumor sizes reached greater than 3000 mm^3, whichever was first. Mice were euthanized and tumors were collected.
Tumor tissues (50 to 80 mg) were homogenized using metal beads in pre-chilled RINO screw cap tubes, using lysis matrix (MP Lysing Matrix S [⅛″], 2 mL Tube MP Biomedical Cat #116925100) on MP Fast Prep 24 instrument. Tumor RNA extraction from the tumor homogenate used the Ambion Purelink, RNA kit (Cat #12183018A) according to the manufacturers' protocol. A total of 100 ng RNA was used for the Nanostring analysis of the immuno-oncology and fibrosis panel, and 300 ng RNA was used for the analysis of the integrin panel. RNA was hybridized to gene expression Plexset according to the manufacturers' protocol. Hybridized reactions were read on nCounter MAX (Nanostring), and data were analyzed using nCounter software.
(§4) Table B-5 lists the catalog numbers of the antibodies used in the immunohistochemical (IHC) studies. Quantification of staining was done using the HALO software package (Indica Labs, Albaquerque, NM).

Pan02 tumors = experiment: Pan02 (pancreatic) syngeneic tumor model (Example B6); type: in vivo, C57BL/6 mice
Method: as §1, §2, §3
Animals were monitored weekly for changes in tumor volume. Tumors were measured at least once a week using calipers. Tumor volume was calculated using the equation: (longest diameter*shortest diameter^2)/2. […]
Tumor tissues (50 to 80 mg) were homogenized using metal beads in pre-chilled RINO screw cap tubes, using lysis matrix (MP Lysing Matrix S [⅛″], 2 mL Tube MP Biomedical Cat #116925100) on MP Fast Prep 24 instrument. […] Hybridized reactions were read on nCounter MAX (Nanostring), and data were analyzed using nCounter software.
as §4

[1] = system: human breast tumor tissue; experiment: Ex vivo cultured human breast tumor tissue, immunofluorescence of fibrotic markers; type: cell-based
Method: Integrin αVβ1 is expressed in multiple solid tumors and drives the adhesion of cancer-associated fibroblasts (CAFs) to latent TGFβ. In human tumor tissues and in CAFs, αVβ1 protein expression was evaluated via immunohistochemistry (IHC) and custom […] assay, respectively. CAF adhesion to the TGFβ latency-associated peptide (LAP) was quantified in the presence or absence of Compound 39 in vitro by high-content microscopy imaging. The activity of Compound 39 in combination with anti-mPD-1 on fibrotic markers was evaluated in the EMT6 tumor model in vivo by gene expression analysis using the Nanostring® nCounter analysis system. Compound 39-treated human breast tumor tissue was analyzed for fibrotic marker α-smooth muscle actin (αSMA) using immunofluorescence.
αvβ1 protein expression was evaluated in human tumor tissues via immunohistochemistry. αvβ1 protein levels in primary human CAFs isolated from pancreatic carcinoma, lung adenocarcinoma, and lung squamous cell carcinoma were quantified via custom electrochemiluminescence assay. CAF adhesion to latency associated peptide (LAP), the integrin-binding region of latent TGF-β, was quantified in the presence or absence of Compound 39 of the examples and a small molecule selective inhibitor of αvβ1 by high-content imaging in vitro. […]

TKCC-10 PDX = experiment: Orthotopic TKCC-10 (PDX-10) PDX model of PDAC (Example B12); type: in vivo, NSG mice
Method: (§5) Table B-9 depicts the study design to determine the efficacy of selective αvβ1/αvβ8 SMI in the orthotopic ECM-high PDX models of PDAC. Table B-10 depicts the study design for the TKCC-10 PDX model.
TKCC-10 PDX bearing mice were treated with dose regimen according to the schematic in Table B-9 and FIG. 24A depicts a schematic diagram of the treatment regimen in the TKCC-10 mice. FIG. 24B depicts a graph showing final tumor weight for TKCC-10 PDX bearing mice after treatment with G/A, Compound 39, and Compound 39+G/A. FIG. 24C depicts a graph showing final tumor weight for TKCC-10 PDX bearing mice after treatment with G/A, ADWA-11, and ADWA-11+G/A.

TKCC-08 tumors = experiment: Subcutaneous FNX-resistant TKCC-08 PDX model of PDAC (Example B12); type: in vivo, NSG mice
Method: as §5
Table B-12 depicts the study design for the TKCC-08 model.
FNX is a standard of care chemotherapy regimen for pancreatic ductal adenocarcinoma. However, the clinical response to FNX remains bleak. To assess if Compound 39 augmented the therapeutic benefit of FNX, Compound 39 was tested alone and in combination with FNX in the TKCC-08 model, which is made FNX-resistant by continuous exposure to the FNX.

KPC tumors = experiment: Orthotopic KPC syngeneic model of PDAC (Example B11)
Method: The preclinical efficacy of Compound 39 of the examples was determined in genetically-defined (LSL-KrasG12D/+; LSL-Trp53R172H/+; Pdx1-Cre (KPC), and Pan02) and genomically diverse patient-derived PDA xenograft models. Clinically relevant combinations with standard of care (SoC) chemotherapy and anti-programmed death receptor-1 antibody (anti mPD-1) were tested by monitoring tumor growth, metastasis, and animal survival. Mechanistic assessment of alterations in the tumor microenvironment (TME) was performed using transcriptomic, immunohistochemical, and immunofluorescence approaches.
Animals were prepared for injection using standard approved anesthesia. Mice were shaved and tumor cells 500 KPC cells were orthotopically implanted (in pancreas) in a 100 μL cell suspension.
Tumor cells were allowed to form pancreatic tumors for one week. Mice were randomized into groups and treated with indicated compounds and dose regimens according to the schema outlined in Table B-7.
Compound 39 was administered in a solution containing 10% v/v ethanol, 70% w/v propylene glycol, and 20% v/v PBS and administered to mice via oral gavage at a dose of 300 mg/kg body weight over the duration of 22 days (for timepoint study) or 80 days (survival study). The mAbs, anti-mPD-1 and anti-αVβ8, were each administered in PBS by intraperitoneal injection at a dose of 10 mg/kg body weight twice a week (for 2 weeks).
Since these were orthotopic tumors, tumor volume measurement was not possible. Tumor weights were determined at the end of the study. Additionally, body weight of mice and any change in behavior/appearance were monitored twice a week for any signs of discomfort/toxicity.
The study was terminated either at 22 days after the first dose, or at 80 days for the survival study. Mice were euthanized and tumors were collected. Half of the tumor was snap frozen in liquid nitrogen and the other half was fixed in formalin.
Formalin (10%) fixed tissues were sent to Histowiz (a clinical research organization providing complete histology services) for paraffin embedding and sectioning. Using standard protocols optimized by Histowiz, tissue sections were stained for hematoxylin and eosin and immunostained for CD8, CD4, Cleaved caspase-3, and FoxP3, which are specific membrane markers for cytotoxic, helper, and regulator T cells, respectively. Additionally, tissues were stained with Pico Sirius Red (PSR) and second harmonic imaging (SHG) analysis was performed to evaluate stromal collagen density.

[2] = Compound 39+α-PD1 vs vehicle+αPD1, FIG. 48, model not stated

Cc1ncnc(Cl)c1C1(C(=O)N[C@@H](CCOCCCCc2ccc3c(n2)NCCC3)C(=O)O)CC1 [Compound 39, N-(1-(4-chloro-6-methylpyrimidin-5-yl)cyclopropane-1-carbonyl)-O-(4-(5,6,7,8-tetrahydro-1,8-naphthyridin-2-yl)butyl)-L-homoserine]
IFNγ gene signature (EMT6 tumors; [2]): increases | TGFβ gene signatures (EMT6 tumors; [2]): Reduces | fibrotic markers and tissue fibrosis in the tumor microenvironment (EMT6 tumors; Nanostring gene expression, Pico Sirius red, FIG. 107-112): reduces fibrotic markers; also recorded: significantly reduced fibrosis | TGFβ activity (EMT6 tumors; compared to vehicle, FIG. 33, model not given): reduced TGFβ activity | expression of IFNγ-regulated gene Granzyme B (EMT6 tumors; compared to vehicle, FIG. 34A): increased expression | expression of IFNγ-regulated gene IFNγ (EMT6 tumors; compared to vehicle, FIG. 34B): increased expression | expression of IFNγ-regulated gene CXCL9 (EMT6 tumors; compared to vehicle, FIG. 34C): increased expression | expression of IFNγ-regulated gene PDL1 (EMT6 tumors; compared to vehicle, FIG. 34D): increased expression | tumor growth (Pan02 tumors; Pan02, FIG. 16A, 41): inhibited Pan02 tumor growth | CD8^+ T cell infiltration (Pan02 tumors; in words, FIG. 16B, 43): increased T-cell infiltration | reduction of fibroblast activation marker αSMA ([1]; compared to vehicle-treated tissues, FIG. 106): 2.9 fold | expression of fibrotic markers (αSMA, FAP) ([1]; in words): decreases; also recorded: reduced expression of fibrotic markers αSMA and FAP | mean tumor weight (TKCC-10 PDX; 30 days, Compound 39 300 mg/kg BID oral, G 100 mg/kg / A 30 mg/kg i.p. once per week, FIG. 24B): 0.798 ± 0.17 g | mean number of lung metastases (TKCC-10 PDX; FIG. 25D): 4.1±3.2 | tumor weight / tumor growth (TKCC-10 PDX; in words, FIG. 24C, 73): significantly blocked tumor growth and improved the response to the standard of care (SOC) chemotherapy G/A | mean tumor weight (TKCC-08 tumors; FNX-resistant subcutaneous tumors, Compound 39 300 mg/kg BID oral, FNX i.v. weekly, FIG. 27B): 0.4 ± 0.15 g | tumor growth and tumor weight (TKCC-08 tumors; in words, FIG. 27A, 27B): significantly reduced the tumor growth and the tumor weight | mean tumor weight (KPC tumors; 22 day timepoint, Compound 39 300 mg/kg oral gavage, mAbs 10 mg/kg i.p., FIG. 20B): 0.44 ± 0.9 g | collagen content (PSR, SHG imaging) (KPC tumors; FIG. 22A, 22B): significantly reduced the collagen content | reduction in tumor weight compared with vehicle (KPC tumors; FIG. 79): 45% | avg % CD8^+ T cells/ROI, invasive (leading) edge (KPC tumors; IHC, FIG. 21A): 3.06±1.05% | avg % CD8^+ T cells/ROI, internal tumor (KPC tumors; IHC, FIG. 21B): 2.02±0.77% | disease progression / overall survival (KPC tumors; in words, FIG. 23, 46, 47): delayed disease progression in vivo; also recorded: improved overall survival compared to α-PD-1 | CD4^+ T cells (KPC tumors; in words, compared to vehicle, FIG. 21E, 21F): did not show any significant difference in CD4^+ T cells | median survival (median OS) (KPC tumors; survival study up to 80 days, FIG. 23B, 23C): 45 days

Reference: patent US20240245682A1, “ALPHA-V-BETA-8 INTEGRIN INHIBITORS AND USES THEREOF” (Pliant Therapeutics, Inc., priority 2022, published 2024)
